Eleven compounds from ChEMBL document CHEMBL3856256, “The discovery and preclinical characterization of 6-chloro-N-(2-(4,4-difluoropiperidin-1-yl)-2-(2-(trifluoromethyl)pyrimidin-5-yl)ethyl)quinoline-5-carboxamide based P2X7 antagonists” (Bioorg Med Chem Lett, 2016) can be followed below.

The subject of data set [1] is Mus musculus. The data set can be described thus: Ex vivo inhibition of P2X7 receptor in C57/bl6 mouse assessed as plasma concentration required to reduce LPS/BzATP-induced IL-1beta release at 50 mg/kg, po measured 2 hrs post dose. It is filed as functional, organism-based.
Data set [2] concerns Mus musculus. Nature of the data set: Ex vivo inhibition of P2X7 receptor in C57/bl6 mouse assessed as plasma concentration required to reduce LPS/BzATP-induced IL-1beta release at 50 mg/kg, po measured 4 hrs post dose. Type of data set: functional, organism-based.
Data set [3] is described as follows: Drug uptake in mouse brain at 50 mg/kg, po measured at 4 hrs. It is filed as ADME, organism-based. The note with it: read-out: Drug uptake.
Data set [4] concerns the target T1, P2X purinoceptor 7 (Mus musculus, UniProt Q9Z1M0).
T1 sequence (Q9Z1M0 whole entry): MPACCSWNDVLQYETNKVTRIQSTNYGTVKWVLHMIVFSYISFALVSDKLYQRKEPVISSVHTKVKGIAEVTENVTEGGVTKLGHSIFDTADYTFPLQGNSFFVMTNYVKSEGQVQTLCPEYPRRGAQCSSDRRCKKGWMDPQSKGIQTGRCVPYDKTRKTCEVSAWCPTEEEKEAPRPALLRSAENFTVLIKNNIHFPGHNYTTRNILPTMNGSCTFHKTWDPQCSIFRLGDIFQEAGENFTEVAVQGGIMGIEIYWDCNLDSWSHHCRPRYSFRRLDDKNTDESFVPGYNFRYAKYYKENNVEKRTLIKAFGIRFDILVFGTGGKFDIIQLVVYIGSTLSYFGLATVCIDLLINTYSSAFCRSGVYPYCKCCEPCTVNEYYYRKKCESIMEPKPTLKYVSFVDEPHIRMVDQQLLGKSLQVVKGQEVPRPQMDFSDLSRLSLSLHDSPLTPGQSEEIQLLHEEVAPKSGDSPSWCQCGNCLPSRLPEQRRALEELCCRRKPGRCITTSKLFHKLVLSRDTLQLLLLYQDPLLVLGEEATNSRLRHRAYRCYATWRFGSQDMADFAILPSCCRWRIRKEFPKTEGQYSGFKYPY
Nature of the data set: Antagonist activity at P2X7 receptor in C57/bl6 mouse whole blood assessed as reduction in LPS/BzATP-induced IL-1beta release preincubated with LPS-stimulated cells for 30 mins followed by BzATP addition measured after 1.5 hrs by ELISA. Type of data set: tissue-based. For orientation: ELISA stands for enzyme-linked immunosorbent assay.

Data set [5] relates to Mus musculus. Nature of the data set: Ex vivo inhibition of P2X7 receptor in C57/bl6 mouse assessed as plasma concentration required to reduce LPS/BzATP-induced IL-1beta release at 5 mg/kg, po measured 2 hrs post dose. It is filed as functional, organism-based.
Data set [6] deals with T2, P2X purinoceptor 7 (Homo sapiens, UniProt Q99572).
T2 sequence (Q99572 whole entry): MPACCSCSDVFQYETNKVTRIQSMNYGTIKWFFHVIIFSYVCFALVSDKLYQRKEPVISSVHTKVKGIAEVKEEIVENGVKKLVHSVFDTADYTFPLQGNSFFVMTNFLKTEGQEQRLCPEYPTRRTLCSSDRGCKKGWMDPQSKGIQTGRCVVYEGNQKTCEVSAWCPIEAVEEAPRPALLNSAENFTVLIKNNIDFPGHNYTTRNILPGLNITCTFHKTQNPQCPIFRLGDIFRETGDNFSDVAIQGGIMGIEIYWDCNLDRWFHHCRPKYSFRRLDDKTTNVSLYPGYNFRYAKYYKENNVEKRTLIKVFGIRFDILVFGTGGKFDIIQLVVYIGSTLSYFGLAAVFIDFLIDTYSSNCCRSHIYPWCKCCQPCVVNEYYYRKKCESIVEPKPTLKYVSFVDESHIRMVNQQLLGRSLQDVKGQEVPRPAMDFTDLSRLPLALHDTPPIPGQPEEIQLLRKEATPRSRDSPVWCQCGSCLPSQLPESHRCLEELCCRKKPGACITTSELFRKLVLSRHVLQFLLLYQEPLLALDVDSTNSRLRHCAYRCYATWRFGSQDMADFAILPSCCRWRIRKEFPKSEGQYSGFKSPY
The data set can be described thus: Antagonist activity at human P2X7 receptor assessed as reduction in calcium flux by FLIPR assay. Background: A change in cytosolic calcium serves as a functional read-out for many receptors and channels.

Data set [7] in a line: Drug uptake in C57/bl6 mouse plasma at 50 mg/kg, po after 24 hrs. Type of data set: ADME, organism-based. The following applies: in vivo, BLD = below limit of detection.
In data set [8] the test system is Mus musculus. Nature of the data set: Ex vivo inhibition of P2X7 receptor in po dosed C57/bl6 mouse assessed as reduction in LPS/BzATP-induced IL-1beta release in blood measured 2 hrs post dose. Type of data set: functional, organism-based.
Data set [9] deals with T1, P2X purinoceptor 7. The data set can be described thus: Antagonist activity at mouse P2X7 receptor assessed as reduction in calcium flux by FLIPR calcium flux assay.
Data set [10] relates to Mus musculus. The data set can be described thus: Ex vivo inhibition of P2X7 receptor in C57/bl6 mouse assessed as plasma concentration required to reduce LPS/BzATP-induced IL-1beta release at 50 mg/kg, po measured 8 hrs post dose. It is filed as functional, organism-based.
The nature of data set [11]: Plasma concentration in mouse at 50 mg/kg, po measured at 4 hrs. Type of data set: ADME, organism-based.
Data set [12] deals with T2, P2X purinoceptor 7. Nature of the data set: Antagonist activity at P2X7 receptor in human whole blood assessed as reduction in LPS/BzATP-induced IL-1beta release preincubated with LPS-stimulated cells for 30 mins followed by BzATP addition measured after 1.5 hrs by ELISA. It is filed as tissue-based.
Data set [13] concerns Mus musculus. The data set can be described thus: Ex vivo inhibition of P2X7 receptor in C57/bl6 mouse assessed as plasma concentration required to reduce LPS/BzATP-induced IL-1beta release at 15 mg/kg, po measured 2 hrs post dose. Type of data set: functional, organism-based.
Data set [14] deals with Mus musculus. Nature of the data set: Antiarthritic activity in DBA mouse assessed as decrease in collagen/CFA-induced arthritic score at 0.3 mg/kg, po qd administered on day 21 to 34 post collagen/CFA challenge measured on day 35. It is filed as functional, organism-based.
For data set [15], the system named is Mus musculus. The data set can be described thus: Antiarthritic activity in DBA mouse assessed as decrease in collagen/CFA-induced arthritic score at 30 mg/kg, ip twice per week administered on day 21 post collagen/CFA challenge. It is filed as functional, organism-based.

Usually IC50 stands for the concentration that gives 50% inhibition.

Active and inactive are the calls of the source. The rule behind the calls is not given here.

Take `O=C(NCC(c1cnc(C(F)(F)F)nc1)N1CCC(F)(F)CC1)c1c(Cl)ccc2nc(N3CC[C@@H](O)C3)ccc12` (some centres not stated): the Cp was 23.4 µM in the data set with Mus musculus [1]; 11.7 µM with Mus musculus [2]; 1.6 µM with Mus musculus [5]; “Bld” in data set [7]; 4 µM in the data set with Mus musculus [10]; 8.9 µM in the data set with Mus musculus [13]. For the same compound, the concentration at 4 h came out at 21 ng/mL in [3] and 6420 ng/mL in data set [11]. The IC50 amounted to 316 nM on P2X purinoceptor 7 [4], 35 nM at P2X purinoceptor 7 [6], 80 nM on P2X purinoceptor 7 [9] and 87 nM on P2X purinoceptor 7 [12]. Further, in the data set on Mus musculus [8], the inhibition entry was “Dose-dependent effect”.

Turning to `C[C@@H]1C[C@H]2[C@@H]3CCC4=CC(=O)C=C[C@]4(C)[C@@]3(F)[C@@H](O)C[C@]2(C)[C@@]1(O)C(=O)CO`, the outcome in the data set with Mus musculus [14] was Active.

For `O=C(NCC(c1cnc(C(F)(F)F)nc1)N1CCC(F)(F)CC1)c1c(Cl)ccc2nc(NC3CC3)ccc12` (configuration not stated), the IC50 on P2X purinoceptor 7 [4] came to 631 nM; on P2X purinoceptor 7 [6] it was 64 nM; on P2X purinoceptor 7 [9], 123 nM; on P2X purinoceptor 7 [12], 141 nM.

As to `CN1CCN(c2ccc3c(C(=O)NCC(c4cnc(C(F)(F)F)nc4)N4CCC(F)(F)CC4)c(Cl)ccc3n2)CC1` (configuration not stated), the results for the 50% inhibitory concentration (IC50) at P2X purinoceptor 7 [6] and at P2X purinoceptor 7 [9] were 85 nM and 486 nM, respectively.

On to `O=C(NCC(c1cnc(C(F)(F)F)nc1)N1CCC(F)(F)CC1)c1c(Cl)ccc2nc(NCCO)ccc12` (configuration not stated), for which, at P2X purinoceptor 7 [6], the half-inhibitory concentration (IC50) worked out at 78 nM.

In the case of `CNc1ccc2c(C(=O)NCC(c3cnc(C(F)(F)F)nc3)N3CCC(F)(F)CC3)c(Cl)ccc2n1` (configuration not stated), the 50% inhibitory concentration (IC50) at P2X purinoceptor 7 [6] stood at 82 nM; at P2X purinoceptor 7 [9], 305 nM.

Turning to `O=C(NCC(c1cnc(C(F)(F)F)nc1)N1CCC(F)(F)CC1)c1c(Cl)ccc2nc(N3CC[C@H](O)C3)ccc12` (some centres not stated), at P2X purinoceptor 7 [6], the IC50 is 151 nM.

In the case of `CN(Cc1cnc2nc(N)nc(N)c2n1)c1ccc(C(=O)N[C@@H](CCC(=O)O)C(=O)O)cc1`, the outcome in the data set with Mus musculus [15] was Active.

With `Nc1ccc2c(C(=O)NCC(c3cnc(C(F)(F)F)nc3)N3CCC(F)(F)CC3)c(Cl)ccc2n1` (configuration not stated), the 50% inhibitory concentration (IC50) on P2X purinoceptor 7 [6] stood at 9 nM; at P2X purinoceptor 7 [9] it was 1090 nM.

Regarding `O=C(NCC(c1cnc(C(F)(F)F)nc1)N1CCC(F)(F)CC1)c1c(Cl)ccc2nc(N3CCC(O)CC3)ccc12` (configuration not stated), on P2X purinoceptor 7 [6], the concentration for half-maximal inhibition (IC50) was found to be 120 nM.

`O=C(NCC(c1cnc(C(F)(F)F)nc1)N1CCC(F)(F)CC1)c1c(Cl)ccc2nc(N3CCOCC3)ccc12` (configuration not stated): the half-maximal inhibitory concentration (IC50) on P2X purinoceptor 7 [4] was 631 nM; at P2X purinoceptor 7 [6], 25 nM; at P2X purinoceptor 7 [9] it was 103 nM; at P2X purinoceptor 7 [12] it was 376 nM.
